Data published in patent publication US20240148821A1, “PHARMACEUTICAL USE OF CYCLIC PEPTIDE COMPOUND” (CHUGAI SEIYAKU KABUSHIKI KAISHA, priority 2021, published 2024).
Numbered stars: 1 amine (or outer) side, 2 acyl side, 3 side chain; on linkers, the order of the positions; unused ones are H or OH. Bridge positions count the residues as written; N and C are the ends. Square brackets hold non-standard residues; d marks the D form. Peptide text beside a SMILES is read from it. * marks the point of attachment. hPhe(3-Cl-4-CF3) = N[C@@H](CCc1ccc(C(F)(F)F)c(Cl)c1)C(=O)O; hPhe(3-F,4-CF3) = N[C@@H](CCc1ccc(C(F)(F)F)c(F)c1)C(=O)O; NEtPhe(4-CF3) = CCN[C@@H](Cc1ccc(C(F)(F)F)cc1)C(=O)O; NMePhe(4-CF3) = CN[C@@H](Cc1ccc(C(F)(F)F)cc1)C(=O)O; hPhe(4-CF3) = N[C@@H](CCc1ccc(C(F)(F)F)cc1)C(=O)O; 3Oxa8azabicyclo(3.2.1)octane = C1CC2COCC1N2*; NMePhe(4-Cl) = CN[C@@H](Cc1ccc(Cl)cc1)C(=O)O; NMePhe(4-Me) = CN[C@@H](Cc1ccc(C)cc1)C(=O)O; NMedβ3hAla = C[C@H](CC(=O)[*:2])N(C)[*:1]; NMeGly(cPent) = CN[C@H](C(=O)O)C1CCCC1; NMeCha = CN[C@@H](CC1CCCCC1)C(=O)O; Hyp = O=C(O)[C@@H]1C[C@@H](O)CN1; NEtLeu = CCN[C@@H](CC(C)C)C(=O)O; NMeChg = CN[C@H](C(=O)O)C1CCCCC1; NMeI = CC[C@H](C)[C@H](NC)C(=O)O; NMeT = CN[C@H](C(=O)O)[C@@H](C)O; NMeD = CN[C@@H](CC(=O)O)C(=O)O; NMeL = CN[C@@H](CC(C)C)C(=O)O; NMeNle = CCCC[C@H](NC)C(=O)O; NMeNva = CCC[C@H](NC)C(=O)O; NMeV = CN[C@H](C(=O)O)C(C)C; d(β3hA) = C[C@@H](N)CC(=O)O; Azetidin(1-yl) = C1CN(*)C1; NMeS = CN[C@@H](CO)C(=O)O; NMeA = CN[C@@H](C)C(=O)O; NMeAib = CNC(C)(C)C(=O)O; Piperidide = C1CCN(*)CC1; dNMeA = CN[C@H](C)C(=O)O; Ac5c = NC1(C(=O)O)CCCC1; Aze = O=C(O)[C@@H]1CCN1; NBuGly = CCCCNCC(=O)O; Aib = CC(C)(N)C(=O)O; Isopentyl = CC(C)CC*; Sar = CNCC(=O)O; Propyl = CCC*

Target: protein-protein interaction between Kras and SOS1 (biotin-tagged human Kras loaded with GDP, His-tagged human SOS1) (Homo sapiens (Human), UniProt P01116, G12D)
Assay: Protein-protein interaction inhibition between Kras and SOS1 (KrasG12D-SOS PPI) using AlphaScreen;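 note: kras produced in E. coli, Ni-coupled donor beads and streptavidin acceptor beads, excitation 680 nm with emission detected at 520–620 nm via singlet oxygen transfer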
Assay type: biochemical
Details: AlphaScreen; biotin-tagged human Kras loaded with GDP, His-tagged human SOS1; read-out: KRAS G12D-SOS PPI IC50

Row | SMILES | IC50
1 | CC[C@H](C)[C@@H]1NC(=O)[C@H]([C@@H](C)CC)N(C)C(=O)C[C@@H](C)N(C)C(=O)[C@H](C(C)C)N(C)C(=O)C(C)(C)N(C)C(=O)[C@@H]2CCCN2C(=O)[C@H](CCc2ccc(C(F)(F)F)c(Cl)c2)NC(=O)CN(C)C(=O)[C@H](CC2CCCCC2)N(C)C(=O)[C@@H]2CCN2C(=O)[C@H](C)N(C)C1=O [Compound 2159, (5S,8S,11S,15R,18S,23aS,29S,35S,37aS)-8,11-di((S)-sec-butyl)-29-(3-chloro-4-(trifluoromethyl)phenethyl)-35-(cylohexylmethyl)-18-isopropyl-5,6,12,15,16,19,21,21,22,33,36-undecamethyltetracosahydro-2H-azeto[2,1-u]pyrrolo[2,1-i] [1,4,7,10,13,16,19,22,25,28,31]undecaazacyclotetratriacontyne-4,7,10,13,17,20,23,28,31,34,37(14H)-undecone] (cyclo([Aze][NMeCha][Sar][hPhe(3-Cl-4-CF3)]P[NMeAib][NMeV][NMedβ3hAla][NMeI]I[NMeA])) | 3.5 nM
2 | CCCC[C@H]1C(=O)N[C@@H]([C@@H](C)CC)C(=O)N(C)[C@@H](C)C(=O)N2CC[C@H]2C(=O)N(C)[C@@H](CC2CCCCC2)C(=O)N(C)CC(=O)N[C@@H](CCc2ccc(C(F)(F)F)c(Cl)c2)C(=O)N2CCC[C@H]2C(=O)NC2(CCCC2)C(=O)N(C)[C@@H](C(C)C)C(=O)N[C@H](C)CC(=O)N1C [Compound 1568] (cyclo([Ac5c][NMeV][d(β3hA)][NMeNle]I[NMeA][Aze][NMeCha][Sar][hPhe(3-Cl-4-CF3)]P)) | 94 nM
3 | CC[C@H](C)[C@@H]1NC(=O)[C@H](CC(C)C)N(C)C(=O)C[C@@H](C(=O)N2CCCCC2)N(C)C(=O)[C@H](C(C)C)N(C)C(=O)C2(CCCC2)NC(=O)[C@@H]2CCCN2C(=O)[C@H](CCc2ccc(C(F)(F)F)c(Cl)c2)NC(=O)CN(C)C(=O)[C@H](COCCC(C)C)N(C)C(=O)[C@@H]2CCN2C(=O)[C@H](C)N(C)C1=O [Compound 470] ([NMeL]I[NMeA][Aze][NMeS](Isopentyl)[Sar][hPhe(3-Cl-4-CF3)]P[Ac5c][NMeV][NMeD]-Piperidide; lactam N-11) | 2.2 nM
4 | CC[C@H](C)[C@@H]1NC(=O)[C@H](CC(C)C)N(C)C(=O)C[C@@H](C)N(C)C(=O)[C@H](C2CCCC2)N(C)C(=O)C2(CCCC2)NC(=O)[C@@H]2CCCN2C(=O)[C@H](CCc2ccc(C(F)(F)F)c(F)c2)NC(=O)CN(C)C(=O)[C@H](CC2CCCCC2)N(C)C(=O)[C@@H]2CCN2C(=O)[C@H](C)N(C)C1=O [Compound 49] (cyclo([Ac5c][NMeGly(cPent)][NMedβ3hAla][NMeL]I[NMeA][Aze][NMeCha][Sar][hPhe(3-F,4-CF3)]P)) | 12 nM
5 | CCCCN1CC(=O)N(C)[C@@H](Cc2ccc(Cl)cc2)C(=O)N(C)CC(=O)N[C@@H](CCc2ccc(C(F)(F)F)cc2)C(=O)N(C)[C@@H](CC(C)C)C(=O)NC(C)(C)C(=O)N(C)[C@@H](CC(C)C)C(=O)N[C@H](C)CC(=O)N(C)[C@@H](C)C(=O)N[C@@H]([C@@H](C)CC)C(=O)N(C)CC1=O [Compound 602] (cyclo([Aib][NMeL][d(β3hA)][NMeA]I[Sar][NBuGly][NMePhe(4-Cl)][Sar][hPhe(4-CF3)][NMeL])) | 280 nM
6 | CCC[C@H]1C(=O)NC2(CCCC2)C(=O)N(C)[C@@H](C2CCCCC2)C(=O)N(C)[C@H](C(=O)N2CCCCC2)CC(=O)N(C)[C@@H](CC(C)C)C(=O)N[C@@H]([C@@H](C)CC)C(=O)N(C)CC(=O)N(C)CC(=O)N(C)[C@@H](CC2CCCCC2)C(=O)N(C)CC(=O)N[C@@H](CCc2ccc(C(F)(F)F)c(Cl)c2)C(=O)N1C [Compound 1005] ([NMeL]I[Sar][Sar][NMeCha][Sar][hPhe(3-Cl-4-CF3)][NMeNva][Ac5c][NMeChg][NMeD]-Piperidide; lactam N-11) | 3.5 nM
7 | CCCOC[C@H]1C(=O)N(C)CC(=O)N[C@@H](CCc2ccc(C(F)(F)F)c(Cl)c2)C(=O)N2CCC[C@H]2C(=O)NC2(CCCC2)C(=O)N(C)[C@@H](C2CCCC2)C(=O)N(C)[C@H](C(=O)N2C3CCC2COC3)CC(=O)N(C)[C@@H](CC(C)C)C(=O)N[C@@H]([C@@H](C)CC)C(=O)N[C@@H](C)C(=O)N2CC[C@H]2C(=O)N1C [Compound 1299] ([NMeL]IA[Aze][NMeS](Propyl)[Sar][hPhe(3-Cl-4-CF3)]P[Ac5c][NMeGly(cPent)][NMeD]-{3Oxa8azabicyclo(3.2.1)octane}; lactam N-11) | 3.6 nM
8 | CC[C@H](C)[C@@H]1NC(=O)[C@H](CC(C)C)N(C)C(=O)C[C@@H](C(=O)N(C)C)N(C)C(=O)[C@H](C(C)C)N(C)C(=O)C2(CCCC2)NC(=O)[C@@H]2CCCN2C(=O)[C@H](CCc2ccc(C(F)(F)F)c(Cl)c2)NC(=O)CN(C)C(=O)[C@H](Cc2ccc(C)cc2)N(C)C(=O)[C@@H]2CCN2C(=O)[C@H](C)N(C)C1=O [Compound 1653] ([NMeL]I[NMeA][Aze][NMePhe(4-Me)][Sar][hPhe(3-Cl-4-CF3)]P[Ac5c][NMeV][NMeD]-NMe2; lactam N-11) | 0.89 nM
9 | CC[C@H](C)[C@@H]1NC(=O)[C@H](C)N(C)C(=O)C[C@@H](C)NC(=O)[C@H](C2CCCC2)N(C)C(=O)C2(CCCC2)NC(=O)[C@@H]2CCCN2C(=O)[C@H](CCc2ccc(C(F)(F)F)c(Cl)c2)NC(=O)[C@@H](C)N(C)C(=O)[C@H](Cc2ccc(C(F)(F)F)cc2)N(C)C(=O)[C@@H]2CCN2C(=O)[C@H](C)N(C)C1=O [Compound 1497] (cyclo([Ac5c][NMeGly(cPent)][d(β3hA)][NMeA]I[NMeA][Aze][NMePhe(4-CF3)][dNMeA][hPhe(3-Cl-4-CF3)]P)) | 25 nM
10 | CCO[C@@H]1C[C@H]2C(=O)NC3(CCCC3)C(=O)N(C)[C@@H]([C@@H](C)CC)C(=O)N(C)[C@H](C)CC(=O)N(C)[C@@H](CC(C)C)C(=O)N[C@@H]([C@@H](C)CC)C(=O)N[C@@H](C)C(=O)N3CC[C@H]3C(=O)N(CC)[C@@H](Cc3ccc(C(F)(F)F)cc3)C(=O)N(C)CC(=O)N[C@@H](CCc3ccc(C(F)(F)F)c(Cl)c3)C(=O)N2C1 [Compound 673] (cyclo(A[Aze][NEtPhe(4-CF3)][Sar][hPhe(3-Cl-4-CF3)][Hyp](Et)[Ac5c][NMeI][NMedβ3hAla][NMeL]I)) | 11 nM
11 | CC[C@H](C)[C@@H]1NC(=O)[C@H](CC(C)C)N(CC)C(=O)C[C@@H](C(=O)N2CCC2)N(C)C(=O)[C@H](C2CCCC2)N(C)C(=O)C2(CCCC2)NC(=O)[C@@H]2CCCN2C(=O)[C@H](CCc2ccc(C(F)(F)F)c(Cl)c2)NC(=O)CN(C)C(=O)[C@H](CC2CCCCC2)N(C)C(=O)[C@@H]2CCN2C(=O)[C@H](C)NC1=O [Compound 1262] ([NEtLeu]IA[Aze][NMeCha][Sar][hPhe(3-Cl-4-CF3)]P[Ac5c][NMeGly(cPent)][NMeD]-{Azetidin(1-yl)}; lactam N-11) | 1.3 nM
12 | CC[C@H](C)[C@@H]1NC(=O)[C@H](CC(C)C)N(C)C(=O)C[C@@H](C(=O)N2CCCCC2)N(C)C(=O)[C@H]([C@@H](C)OC)N(C)C(=O)C2(CCCC2)NC(=O)[C@@H]2CCCN2C(=O)[C@H](CCc2ccc(C(F)(F)F)c(Cl)c2)NC(=O)CN(C)C(=O)[C@H](CC2CCCCC2)N(C)C(=O)[C@@H]2CCN2C(=O)[C@H](C)N(C)C1=O [Compound 639] ([NMeL]I[NMeA][Aze][NMeCha][Sar][hPhe(3-Cl-4-CF3)]P[Ac5c][NMeT](Me)[NMeD]-Piperidide; lactam N-11) | 14 nM
